The values that follow come from patent publication EP2790511B1 (Merck Sharp & Dohme Corp., priority 2011, dated 2013).

In one experiment the target is T1, hROMK (hKir1.1) (Homo sapiens, UniProt P48048).
T1 construct: expressed in transfected cells
T1 sequence (P48048 1-391): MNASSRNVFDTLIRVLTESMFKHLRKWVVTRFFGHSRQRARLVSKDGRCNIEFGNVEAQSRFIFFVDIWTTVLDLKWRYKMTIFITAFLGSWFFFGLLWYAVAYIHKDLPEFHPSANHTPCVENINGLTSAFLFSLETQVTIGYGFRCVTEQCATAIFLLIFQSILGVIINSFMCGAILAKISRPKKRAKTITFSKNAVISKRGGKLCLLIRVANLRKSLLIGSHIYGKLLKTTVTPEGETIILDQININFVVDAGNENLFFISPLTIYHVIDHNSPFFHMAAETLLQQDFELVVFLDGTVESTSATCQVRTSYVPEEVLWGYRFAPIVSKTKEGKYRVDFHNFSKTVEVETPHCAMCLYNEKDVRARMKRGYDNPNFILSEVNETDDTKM
Description: Thallium Flux Assay. The experiment is classed as cell-based. In outline: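 HEK293 cells stably expressing hROMK, loaded with FluxOR dye 90 min at ambient temperature, then compound 30 min with 0.3 mM ouabain in probenecid buffer pH 7.4.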

For the next experiment, the target named is T2, Kir1.1 (ROMK1) (Homo sapiens, UniProt P48048).
T2 sequence (P48048 1-391): T1 sequence (P48048 1-391)
Description: Electrophysiology Assay (whole cell voltage clamp, IonWorks Quattro). (In patch-clamp work, channel activity is measured electrically.)

Where [1] appears, read: HEK293 cells stably expressing hROMK (hKir1.1), FLIPR-Tetra, read-out: Thallium Flux IC50.

Like-named read-outs stand apart in the source and are kept apart here.

Description for Kir1.1 (ROMK1): Chinese hamster ovary cells stably expressing Kir1.1 channels were maintained in T-75 flasks in cell culture media in a humidified 10% CO2 incubator at 37 °C. Prior to an experiment, Kir1.1 expression was induced by overnight incubation with 1 mM sodium butyrate. […] After centrifugation, the cell pellet was resuspended in approximately 4.0 mL of bath solution and placed in the IonWorks instrument. The intracellular solution consisted of (in mM): 80 K gluconate, 40 KCl, 20 KF, 3.2 MgCl2, 3 EGTA, 5 Hepes, pH 7.4. Electrical access to the cytoplasm was achieved by perforation in 0.13 mg/mL amphotericin B for 4 min. […] Voltage protocols and current recordings were performed using the IonWorks HT software/hardware system. Currents were sampled at 1 kHz. No correction for liquid junction potentials was used. The test pulse, consisting of a 100 ms step to 0 mV from a holding potential of -70 mV, followed by a 100 ms voltage ramp from -70 mV to +70 mV, was applied before and after a 6 min compound incubation period. Test compounds were prepared by diluting DMSO stock solutions into the bath solution at 3x the final concentration and placed in the instrument in 96-well polypropylene plates. Current amplitudes were measured using the IonWorks software.

`Cc1c([C@@H]2CN3CCN(C(=O)Cc4ccc(-n5cnnn5)cn4)C[C@H]3CO2)ccc(F)c1C#N` [Example 2, 3-((3R,9aS)-8-(2-(5-(1H-tetrazol-1-yl)pyridin-2-yl)acetyl)octahydropyrazino[2,1-c][1,4]oxazin-3-yl)-6-fluoro-2-methylbenzonitrile]: the figures for the IC50 at hROMK (hKir1.1) (setting [1]) and on Kir1.1 (ROMK1) were 120 nM and 70 nM, respectively.
The like results for `Cc1c([C@H]2CN3CCN(C(=O)Cc4ccc(-n5cnnn5)cn4)C[C@H]3CO2)ccc(F)c1C#N` [Example 3, 3-((3S,9aS)-8-(2-(5-(1H-tetrazol-1-yl)pyridin-2-yl)acetyl)octahydropyrazino[2,1-c][1,4]oxazin-3-yl)-6-fluoro-2-methylbenzonitrile] were, in that order, 90 nM and 100 nM.
On to `Cc1c([C@H]2CN3CCN(C(=O)Cc4ccc(-n5cnnn5)nc4)C[C@H]3CO2)ccc(F)c1C#N` [Example 4, 6-fluoro-2-methyl-3-[(3S,9aS)-8-{[6-(1H-tetrazol-1-yl)pyridin-3-yl]acetyl}octahydropyrazino[2,1-c][1,4]oxazin-3-yl]benzonitrile], for which the figures for the IC50 against hROMK (hKir1.1) (Thallium Flux IC50) and on Kir1.1 (ROMK1) were 70 nM and 40 nM, respectively.
Consider `Cc1c([C@H]2CN3CCN(C(=O)Cc4cnc(-n5cnnn5)nc4)C[C@H]3CO2)ccc(F)c1C#N` [Example 6, 6-fluoro-2-methyl-3[(3S,9aS)-8-{[2-(1H-tetrazol-1-yl)pyrimidin-5-yl]acetyl}octahydropyrazino[2,1-c][1,4]oxazin-3-yl]benzonitrile], for which the IC50 (usually the concentration that gives 50% inhibition) against hROMK (hKir1.1) (Thallium Flux IC50) stood at 100 nM; against Kir1.1 (ROMK1) it was 40 nM.
In turn, `Cc1c([C@H]2CN3CCN(C(=O)Cc4ccc(-n5cnnn5)nc4)C[C@@H]3CO2)ccc(F)c1C#N` [Example 7, 6-fluoro-2-methyl-3-[(3S,9aR)-8-{[6-(1H-tetrazol-1-yl)pvridin-3-yl]acetyl}octahydropyrazino[2,1-c][1,4]oxazin-3-yl]benzonitrile] displayed a 50% inhibitory concentration (IC50) against Kir1.1 (ROMK1) of 70 nM.
On Kir1.1 (ROMK1), `Cc1c([C@@H]2CN3CCN(C(=O)Cc4ccc(-n5cnnn5)nc4)C[C@@H]3CO2)ccc(F)c1C#N` [Example 8, 6-fluoro-2-methyl-3-[(3R,9aR)-8-{[6-(1H-tetrazol-1-yl)pyridin-3-yl]acetyl}octahydropyrazino[2,1-c][1,4]oxazin-3-yl]benzonitrile] had an IC50 of 40 nM.
In the case of `Cc1c([C@@H]2CN3CCN(C(=O)Cc4cnc(-n5cnnn5)nc4)C[C@@H]3CO2)ccc(F)c1C#N` [Example 13, 6-fluoro-2-methyl-3-[(3R,9aR)-8-{[2-(1H-tetrazol-1-yl)pyrimidin-5-yl]acetyl}octahydropyrazino[2,1-c][1,4]oxazin-3-yl]benzonitrile], the IC50 came to 110 nM against hROMK (hKir1.1) (Thallium Flux IC50) and 30 nM against Kir1.1 (ROMK1).
Turning to `N#Cc1cc([C@@H]2CN3CCN(C(=O)Cc4ccc(-n5cnnn5)nc4)C[C@H]3CO2)ccc1F` [Example 37, 2-fluoro-5-[(3R,9aS)-8-{[6-(1H-tetrazol-1-yl)pyridin-3-yl]acetyl}octahydropyrazino[2,1-c][1,4]oxazin-3-yl]benzonitrile], the IC50 against Kir1.1 (ROMK1) was determined as 20 nM.
On the same count and under the same terms, to `N#Cc1cc([C@@H]2CN3CCN(C(=O)Cc4ccc(-n5cnnn5)cn4)C[C@H]3CO2)ccc1F` [Example 38, 2-fluoro-5-[(3R,9aS)-8-{[5-(1H-tetrazol-1-yl)pyridin-2-yl]acetyl}octahydropyrazino[2,1-c][1,4]oxazin-3-yl]benzonitrile] belongs 120 nM.
Turning to `COc1ccc([C@@H]2CN3CCN(C(=O)Cc4ccc(-n5cnnn5)nc4)C[C@H]3CO2)c(C)c1C#N` [Example 50], the results for the half-maximal inhibitory concentration (IC50) on hROMK (hKir1.1) (setting [1]) and at Kir1.1 (ROMK1) were 80 nM and 130 nM, respectively.
The like results for `COc1cc(F)c([C@@H]2CN3CCN(C(=O)Cc4ccc(-n5cnnn5)nc4)C[C@H]3CO2)cc1C#N` [Example 57, 4-fluoro-2-methoxy-5-[(3R,9aS)-8-{[6-(1H-tetrazol-1-vl)pvridin-3-yl]acetyl}octahydropyrazino[2,1-c][1,4]oxazin-3-yl]benzonitrile] were, in that order, 210 nM and 190 nM.
Regarding `COc1c([C@H]2CN3CCN(C(=O)Cc4ccc(-n5cnnn5)nc4)C[C@H]3CO2)ccc(F)c1C#N` [Example 61, 6-fluoro-2-methoxy-3-[(3S,9aS)-8-{[6-(1H-tetrazol-1-vl)pvridin-3-yl]acetyl}octahydropyrazino[2,1-c][1,4]oxazin-3-yl]benzonitrile], the values for the IC50 at hROMK (hKir1.1) (setting [1]) and against Kir1.1 (ROMK1) were 130 nM and 70 nM, respectively.
Regarding `Cc1nc(-n2cnnn2)ncc1CC(=O)N1CCN2C[C@H](c3ccc(F)c(C#N)c3C)OC[C@@H]2C1` [Example 121, 6-fluoro-2-methyl-3-[(3S,9aS)-8-{[4-methyl-2-(1H-tetrazol-1-yl)pyrimidin-5-yl]acetyl}octahydropyrazino[2,1-c][1,4]oxazin-3-yl]benzonitrile], the IC50 against hROMK (hKir1.1) (Thallium Flux IC50) was 120 nM; at Kir1.1 (ROMK1) it was 90 nM.
Turning to `Cc1c([C@H]2CN3CCN(C(=O)Cc4ccc(-n5cnnn5)cn4)C[C@H]3CN2)ccc(F)c1C#N` [Example 191, 6-fluoro-2-methyl-3-[(3S,9aR)-8-{[5-(1H-tetrazol-1-yl)pyridin-2-yl]acetyl}octahydro-2H-pyrazino[1,2-a]pyrazin-3-yl]benzonitrile], the 50% inhibitory concentration (IC50) at hROMK (hKir1.1) (setting [1]) was determined as 120 nM.
`Cc1c([C@H]2CN3CCN(C(=O)Cc4ccc(-n5cnnn5)nc4)C[C@H]3CN2)ccc(F)c1C#N` [Example 192, 6-fluoro-2-methyl-3-[(3S,9aR)-8-{[6-(1H-tetrazol-1-yl)pyridin-3-yl]acetyl}octahydro-2H-pyrazino[1,2-a]pyrazin-3-yl]benzonitrile]: the IC50 against hROMK (hKir1.1) (Thallium Flux IC50) came to 70 nM.
Same read-out and setting: in the case of `Cc1c([C@@H]2CN3CCN(C(=O)Cc4cnc(-n5cnnn5)nc4)C[C@H]3CN2)ccc(F)c1C#N` [Example 193, 6-fluoro-2-methyl-3-[(3R,9aR)-8-{[2-(1H-tetrazol-1-yl)pyrimidin-5-yl]acetyl}octahydro-2H-pyrazino[1,2-a]pyrazin-3-yl]benzonitrile] it was 100 nM.
`Cc1c([C@@H]2CN3CCN(C(=O)Cc4ccc(-n5cnnn5)nc4)C[C@H]3CN2)ccc(F)c1C#N` [Example 194, 6-fluoro-2-methyl-3-[(3R,9aR)-8-{[6-(1H-tetrazol-1-yl)pyridin-3-yl]acetyl}octahydro-2H-pyrazino[1,2-a]pyrazin-3-yl]benzonitrile]: the half-maximal inhibitory concentration (IC50) at hROMK (hKir1.1) (setting [1]) and on Kir1.1 (ROMK1) was 60 nM each time.
As to `Cc1c([C@@H]2CN3CCN(C(=O)Cc4ccc(-n5cnnn5)cn4)C[C@H]3CN2)ccc(F)c1C#N` [Example 195, 6-fluoro-2-methyl-3-[(3R,9aR)-8-{[5-(1H-tetrazol-1-yl)pyridin-2-yl]acetyl}octahydro-2H-pyrazino[1,2-a]pyrazin-3-yl]benzonitrile], the concentration for half-maximal inhibition (IC50) at hROMK (hKir1.1) (setting [1]) worked out at 250 nM.
With `C[C@@H]1Cc2cc([C@@H]3CN4CCN(C(=O)Cc5ccc(-n6cnnn6)nc5)C[C@H]4CN3)ccc2C(=O)O1` [Example 196, (3R)-3-methyl-6-[(3R,9aR)-8-{[6-(1H-tetrazol-1-yl)pyridin-3-yl]acetyl}octahydro-2H-pyrazino[1,2-a]pyrazin-3-yl]-3,4-dihydro-1H-isochromen-1-one], at hROMK (hKir1.1) (setting [1]), the 50% inhibitory concentration (IC50) stood at 230 nM.
On the same count and under the same terms, in the case of `N#Cc1cc([C@@H]2CN3CCN(C(=O)Cc4cnc(-n5cnnn5)nc4)C[C@H]3CN2)ccc1F` [Example 197, 2-fluoro-5-[(3R,9aR)-8-{[2-(1H-tetrazol-1-yl)pyrimidin-5-yl]acetyl}octahydro-2H-pyrazino[1,2-a]pyrazin-3-yl]benzonitrile] it was 240 nM; in that of `Cc1c([C@@H]2CN3CCN(C(=O)Nc4ccc(-n5cnnn5)nc4)C[C@H]3CO2)ccc(F)c1C#N` [Example 198, (3R,9aS)-3-(3-cyano-4-fluoro-2-methylphenyl)-N-[6-(1H-tetrazol-1-yl)pyridin-3-yl]hexahydropyrazino[2,1-c][1,4]oxazine-8(1H)-carboxamide], 160 nM; in that of `Cc1c([C@@H]2CN3CCN(C(=O)Nc4ccc(-n5cnnn5)nc4)C[C@@H]3CO2)ccc(F)c1C#N` [Example 199, (3R,9aR)-3-(3-cyano-4-fluoro-2-methylphenyl)-N-[6-(1H-tetrazol-1-yl)pyridin-3-yl]hexahydropyrazino[2,1-c][1,4]oxazine-8(1H)-carboxamide], 140 nM.
Still for that read-out and setting: in the case of `Cc1c([C@@H]2CN3CCN(C(=O)Nc4ccc(-n5cnnn5)cn4)C[C@@H]3CO2)ccc(F)c1C#N` [Example 200, (3R,9aR)-3-(3-cyano-4-fluoro-2-methylphenyl)-N-[5-(1H-tetrazol-1-yl)pyridin-2-yl]hexahydropyrazino[2,1-c][1,4]oxazine-8(1H)-carboxamide] it was 250 nM.
The same measure, in the same setting: to `Cc1c([C@@H]2CN3CCN(C(=O)Nc4ccc(-n5cnnn5)cn4)C[C@H]3CO2)ccc(F)c1C#N` [Example 201, (3R,9aS)-3-(3-cyano-4-fluoro-2-methylphenyl)-N-[5-(1H-tetrazol-1-yl)pyridin-2-yl]hexahydropyrazino[2,1-c][1,4]oxazine-8(1H)-carboxamide] belongs 320 nM.
